The values that follow come from PubChem BioAssay AID588807 (The Scripps Research Institute Molecular Screening Center, 2011).

Test in all cases: competitive ABPP of Abhd10 versus anti-targets – biochemical, fluorescence, gel-based, mouse proteome, selectivity assay for PME-1 inhibitor project, late-stage follow-up (AID 588807)
Assay [1] concerns the target Prolyl endopeptidase (Mus musculus) (UniProt Q9QUR6). The note with it: PREP, anti-target, stronger effect = higher value.
Assay [2] relates to Kiaa1363. The note with it: anti-target, stronger effect = higher value.
Assay [3] relates to APEH. Particulars: anti-target, stronger effect = higher value.
Assay [4] deals with Magl. The note with it: anti-target, at 10 µM, stronger effect = higher value.
Assay [5] addresses Monoacylglycerol lipase ABHD6 (Mus musculus) (UniProt Q8R2Y0). The note with it: anti-target, stronger effect = higher value.
The target in assay [6] is Palmitoyl-protein thioesterase ABHD10, mitochondrial (Mus musculus) (UniProt Q6PE15). Particulars: stronger effect = higher value.
Sequence of Palmitoyl-protein thioesterase ABHD10, mitochondrial (Mus musculus) (Q6PE15 whole entry, looked up): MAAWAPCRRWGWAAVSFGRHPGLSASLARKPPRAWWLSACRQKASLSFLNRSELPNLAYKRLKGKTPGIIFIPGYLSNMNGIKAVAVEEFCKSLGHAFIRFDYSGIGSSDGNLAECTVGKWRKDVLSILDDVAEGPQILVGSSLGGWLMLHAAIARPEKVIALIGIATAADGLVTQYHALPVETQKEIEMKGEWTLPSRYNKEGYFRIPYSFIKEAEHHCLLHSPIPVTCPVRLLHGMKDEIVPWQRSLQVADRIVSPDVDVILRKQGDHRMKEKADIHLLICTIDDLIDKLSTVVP

Calls of active or inactive are those of the source. No rule for the calls is given here.

Sequence of Monoacylglycerol lipase ABHD6 (Mus musculus) (Q8R2Y0 whole entry, looked up): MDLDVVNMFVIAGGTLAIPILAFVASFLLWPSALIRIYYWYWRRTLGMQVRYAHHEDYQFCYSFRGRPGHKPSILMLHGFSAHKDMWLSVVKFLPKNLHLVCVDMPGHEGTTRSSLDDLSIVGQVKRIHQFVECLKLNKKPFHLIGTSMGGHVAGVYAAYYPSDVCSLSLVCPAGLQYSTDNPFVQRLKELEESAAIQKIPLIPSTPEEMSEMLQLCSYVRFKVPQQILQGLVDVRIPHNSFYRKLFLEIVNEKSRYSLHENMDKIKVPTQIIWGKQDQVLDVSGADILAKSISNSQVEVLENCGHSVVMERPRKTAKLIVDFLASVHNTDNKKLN
Sequence of Prolyl endopeptidase (Mus musculus) (Q9QUR6 whole entry, looked up): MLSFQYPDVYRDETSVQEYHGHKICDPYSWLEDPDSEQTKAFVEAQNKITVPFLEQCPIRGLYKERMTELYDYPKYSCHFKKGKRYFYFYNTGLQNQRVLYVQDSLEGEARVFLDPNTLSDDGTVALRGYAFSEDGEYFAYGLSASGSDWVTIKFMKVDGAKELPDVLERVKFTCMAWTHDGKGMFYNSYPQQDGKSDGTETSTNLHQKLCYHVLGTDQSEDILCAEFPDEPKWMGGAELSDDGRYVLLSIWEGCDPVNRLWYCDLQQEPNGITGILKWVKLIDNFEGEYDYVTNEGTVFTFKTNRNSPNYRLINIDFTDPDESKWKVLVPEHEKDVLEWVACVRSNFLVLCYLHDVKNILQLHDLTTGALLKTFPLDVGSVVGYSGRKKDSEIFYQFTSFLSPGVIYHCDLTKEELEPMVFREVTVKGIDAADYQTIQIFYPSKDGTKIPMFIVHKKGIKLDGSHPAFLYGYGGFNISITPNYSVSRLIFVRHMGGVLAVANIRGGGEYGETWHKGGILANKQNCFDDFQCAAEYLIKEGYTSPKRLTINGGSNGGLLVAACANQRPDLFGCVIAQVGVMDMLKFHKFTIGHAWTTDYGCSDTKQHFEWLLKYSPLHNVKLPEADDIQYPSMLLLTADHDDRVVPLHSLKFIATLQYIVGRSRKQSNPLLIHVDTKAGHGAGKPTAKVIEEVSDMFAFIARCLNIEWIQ

As for `CC[C@@]1(c2ccc(OC)cc2)C(=O)N(C(=O)OC(C)C)N1C(=O)OC(C)C`, the inhibition was 30% (inactive) in assay [1] (at 10 µM); 40% (inactive) in assay [2] (at 10 µM); 70% (inactive) in assay [3] (at 10 µM); 10% (inactive) in assay [4]; 10% (inactive) in assay [5] (at 10 µM); 100% (inactive) in assay [6] (at 10 µM). Further, the inhibition in assay [6] (inhibition, at 1 µM) stood at 95%.

On to `CC[C@@]1(c2cccc(Cl)c2)C(=O)N(C(=O)OC(C)C)N1C(=O)OC(C)C`, for which the inhibition is 95% (inactive) in assay [1] (at 10 µM); 50% in assay [1] (inhibition, at 1 µM); 75% (inactive) in assay [2] (at 10 µM); 25% in assay [2] (inhibition, at 1 µM); 65% (inactive) in assay [3] (at 10 µM); 30% in assay [3] (inhibition, at 1 µM). Moreover, the inhibition in assay [4] is 45% (inactive); in assay [5] (at 10 µM) it was 70% (inactive); in assay [5] (inhibition, at 0.1 µM), 15%; in assay [5] (inhibition, at 1 µM), 20%; in assay [6] (at 10 µM), 100% (inactive); in assay [6] (inhibition, at 0.1 µM), 40%. Besides, the inhibition in assay [6] (inhibition, at 1 µM) came to 100%.

Turning to `CC[C@@]1(c2cccc(C)c2)C(=O)N(C(=O)OC(C)C)N1C(=O)OC(C)C`, the inhibition in assay [1] (at 10 µM) was 55% (inactive); in assay [1] (inhibition, at 1 µM), 20%; in assay [2] (at 10 µM), 0% (inactive); in assay [3] (at 10 µM), 75% (inactive); in assay [4], 0% (inactive); in assay [5] (at 10 µM), 70% (inactive). For the same compound, the inhibition is 20% in assay [5] (inhibition, at 1 µM); 100% (inactive) in assay [6] (at 10 µM); 30% in assay [6] (inhibition, at 0.1 µM); 100% in assay [6] (inhibition, at 1 µM).

Broadly, the inhibition is the change of the read-out against control, counted positive when it falls.
